Series [1] concerns C. albicans ATCC 10231. Description: Broth microdilution MIC/MFC. Format: cell-based. The note with it: Candida albicans, ATCC10231; for MIC: C. albicans ATCC 10231, 24–48 h at 37°C, read-out: MIC; for MFC: C. albicans ATCC 10231, read-out: MFC. How it is done:
(§1) Two Gram-positive (S. aureus ATCC 29213 and S. epidermidis ATCC 35984) and two Gram-negative (E. coli ATCC 8739 and P. aeruginosa ATCC 9027) strains, and one fungal strain (C. albicans ATCC 10231) were used for the detection of antibacterial activity of carvacrol, NAC, Ac-Cys(Allyl)-OH, and carvacrol codrugs 1–10. All tested compounds were dissolved in 20% DMSO to prepare the stock solution (100 mg/mL). The final concentration of DMSO in each well appeared to be not toxic for all studied microorganisms, as confirmed by the solvent control test included in the study.
The MIC detection of C. albicans ATCC 10231 was performed using the broth microdilution method according to EUCAST guidelines in RPMI 1640 plus 2% glucose with a final inoculum of 1–5 x 10^5 CFU/mL for 24–48 h at 37°C. The Minimum Fungicidal Concentration (MFC) was determined as the lowest concentration of substances at which no fungal growth occurred on Sabouraud agar plates.
(§2) Data were obtained from at least three independent experiments performed in duplicate. The susceptibility of the bacterial strains against ciprofloxacin was used as an internal standard during MIC determinations.
(In general: Dilution methods test growth across graded concentrations, often in twofold steps.)

In series [2] the test system is E. coli ATCC 8739. The experiment in a line: Broth microdilution MIC/MBC on planktonic cells. The note with it: Escherichia coli, ATCC8739; for MIC: E. coli ATCC 8739, 24 h at 37°C, read-out: MIC; for MBC: E. coli ATCC 8739, read-out: MBC. Format: cell-based. How it is done:
as §1
(§3) The effects of carvacrol codrugs 1–10 and reference compounds on planktonic cells were evaluated by Minimum Inhibitory Concentration (MIC) and Minimum Bactericidal Concentration (MBC) determination using the broth microdilution method according to EUCAST guidelines. Bacterial suspensions, grown in Mueller–Hinton Broth (MHB) at logarithmic phase, were incubated on microtiter plates at a concentration of 5 x 10^5 CFU/mL, with several dilutions (0.07–40 mg/mL) for 24 h at 37°C. The MIC was defined as the lowest concentration of substances giving a complete inhibition of visible growth in comparison with a control well, and the MBC was determined as the lowest concentration at which no bacterial growth occurred on Mueller–Hinton Agar plates.
as §2

Series [3] deals with S. aureus ATCC 29213. Description: Broth microdilution MIC/MBC on planktonic cells. Type of series: cell-based. The note with it: Staphylococcus aureus, ATCC29213; for MIC: S. aureus ATCC 29213, 24 h at 37°C, read-out: MIC; for MBC: S. aureus ATCC 29213, read-out: MBC. How it is done: as §1, §3, §2
Series [4] concerns S. epidermidis ATCC 35984. Description: Broth microdilution MIC/MBC on planktonic cells. Type of series: cell-based. The note with it: Staphylococcus epidermidis, ATCC35984; for MIC: S. epidermidis ATCC 35984, 24 h at 37°C, read-out: MIC; for MBC: S. epidermidis ATCC 35984, read-out: MBC. Here is the method:
as §1, §3, §2

Series [5] relates to P. aeruginosa ATCC 9027. Description: Broth microdilution MIC/MBC on planktonic cells. The note with it: Pseudomonas aeruginosa, ATCC9027; for MIC: P. aeruginosa ATCC 9027, 24 h at 37°C, read-out: MIC; for MBC: P. aeruginosa ATCC 9027, read-out: MBC. Type of series: cell-based. How it is done: as §1, §3, §2
Series [6] concerns E. coli ATCC 8739. The experiment in a line: Antibiofilm assay on established biofilm (BIC/BEC). Format: cell-based. Here is the method:
(§4) The efficacy on established biofilm was evaluated by determining Biofilm Inhibitory Concentration (BIC) and Biofilm Eradication Concentration (BEC) according to the method described by Johnson et al. with some modifications. Bacterial suspensions, grown in Tryptic soy broth supplemented with 0.5% (v/v) glucose at logarithmic phase, as well as C. albicans grown in RPMI 1640 plus 2% glucose, were incubated on flat-bottomed microtiter plates at a concentration of 5 x 10^5 CFU/mL. After 24 h of incubation at 37°C, the planktonic cells were gently removed and wells were washed with sterile phosphate-buffered saline solution (PBS) pH 7.3 and filled with carvacrol, carvacrol codrug 4, Ac-Cys(Allyl)-OH with dilutions ranging from the MIC values to a maximum concentration of 50 mg/mL. The OD600 was measured at time 0 and after incubation for 24 h at 37°C. The BIC values were determined as the lowest concentrations where no growth occurred in the supernatant fluid, confirmed by no increase in optical density compared with the initial reading. The BEC values were determined as the lowest concentrations at which no bacterial growth occurred on Tryptic soy agar for bacteria and on Sabouraud agar for C. albicans. Data were obtained from at least three independent experiments performed in duplicate.

Series [7] relates to S. aureus ATCC 29213. Description: Antibiofilm assay on established biofilm (BIC/BEC). Type of series: cell-based. The note with it: S. aureus ATCC 29213 established biofilm. How it is done:
as §4

Series [8] deals with S. epidermidis ATCC 35984. Description: Antibiofilm assay on established biofilm (BIC/BEC). Type of series: cell-based. How it is done:
as §4

The test system of series [9] is P. aeruginosa ATCC 9027. The experiment in a line: Antibiofilm assay on established biofilm (BIC/BEC). Type of series: cell-based. Here is the method: as §4
In series [10] the test system is C. albicans ATCC 10231. The experiment in a line: Antibiofilm assay on established biofilm (BIC/BEC). Type of series: cell-based. How it is done:
as §4

For series [11], the system named is Gram positive and Gram negative tested bacteria. The experiment in a line: Broth microdilution MIC/MBC, range over the bacterial panel. Format: cell-based. Here is the method:
as §1
as §3, with “plates. […]” for “plates.”

For series [12], the system named is human red blood cells (h-RBC). The experiment in a line: Hemolytic activity. The note with it: 4% h-RBC, 1 h at 37°C. Type of series: cell-based. How it is done:
(§5) Experimental protocols to study hemolysis on human red cells were approved by Ethics Committee of the University “G. d’Annunzio” Chieti-Pescara. Human red cells were from two volunteers, who signed the informed consent for this study.
(§6) Hemolytic activity of carvacrol codrugs 1–10 was tested against human red blood cells (h-RBC). Fresh human blood, collected with EDTA, was centrifuged at 3000 rpm for 5 min then washed three times with PBS pH 7.3. Red blood cells were diluted to 4% in PBS and incubated with different codrugs concentrations ranging from 25 to 0.05 mg/mL. After 1 h of incubation at 37°C, the suspensions were sedimented by centrifugation and the release of hemoglobin was determined by absorbance measurement at 405 nm and compared with a 0% hemolysis control (PBS) and a 100% hemolysis control (PBS with 1% v/v Triton X-100). The percentage of hemolysis was calculated using the following equation: Hemolysis (%) = [(OD405sample - OD4050% lysis control)/(OD405100% lysis control - OD4050% lysis contro)] X 100

Another series in a line: Hemolytic activity. The note with it: human, human red blood cells (h-RBC), 4% suspension, pH 7.3; 4% h-RBC in PBS, 1 h at 37°C, at the compound's MIC values. Format: cell-based, human. How it is done:
as §5, §6

Converted amounts (≈) assume the structure as drawn. Counter-ions that a name gives are not always drawn.

Usually MIC stands for the least concentration at which growth counts as inhibited. One may read the MFC as the lowest tested concentration that kills the fungus rather than only halting it. For orientation: MBC means the smallest concentration meeting the test's criterion for killing. In the case of `C=CCSC[C@H](NC(C)=O)C(=O)O` [Ac-Cys(Allyl)-OH, N-Ac-Cys(Allyl)-OH], the MIC with C. albicans ATCC 10231 [1] was determined as 2500 µg/mL (≈ 12.3 mM); in the series on E. coli ATCC 8739 [2] it was 2500 µg/mL (≈ 12.3 mM); in the series on S. aureus ATCC 29213 [3], 5000 µg/mL (≈ 24.6 mM); in series [4], 5000 µg/mL (≈ 24.6 mM); in the series with P. aeruginosa ATCC 9027 [5] it was 10000 µg/mL (≈ 49.2 mM). Also, the MFC with C. albicans ATCC 10231 [1] is 2500 µg/mL (≈ 12.3 mM). For the same compound, the MBC in the series on E. coli ATCC 8739 [2] is 2500 µg/mL (≈ 12.3 mM); in the series on S. aureus ATCC 29213 [3], 5000 µg/mL (≈ 24.6 mM); in [4], 5000 µg/mL (≈ 24.6 mM); in the series with P. aeruginosa ATCC 9027 [5], 10000 µg/mL (≈ 49.2 mM). Moreover, the “BEC as multiple of MIC” value in the series with E. coli ATCC 8739 [6] (E. coli ATCC 8739) is recorded as 8MIC; in [8] (S. epidermidis ATCC 35984), 4MIC; with P. aeruginosa ATCC 9027 [9] (P. aeruginosa ATCC 9027) it was 2MIC; in the series on C. albicans ATCC 10231 [10] (C. albicans ATCC 10231), 2MIC. For the same compound, the “BIC as multiple of MIC” value in the series with E. coli ATCC 8739 [6] (E. coli ATCC 8739) turned out to be 2MIC; in series [8] (S. epidermidis ATCC 35984), 4MIC; in the series with C. albicans ATCC 10231 [10] (C. albicans ATCC 10231) it was 2MIC. For the same compound, the BEC with E. coli ATCC 8739 [6] (E. coli ATCC 8739 established biofilm) was determined as 20 mg/mL; in the series on S. aureus ATCC 29213 [7], 20 mg/mL; in [8] (S. epidermidis ATCC 35984 established biofilm), 20 mg/mL; in the series with P. aeruginosa ATCC 9027 [9] (P. aeruginosa ATCC 9027 established biofilm), 20 mg/mL; in the series with C. albicans ATCC 10231 [10] (C. albicans ATCC 10231 established biofilm), 5 mg/mL. In addition, the BIC with E. coli ATCC 8739 [6] (E. coli ATCC 8739 established biofilm, 24 h) came out at 5 mg/mL; with S. aureus ATCC 29213 [7] (24 h), 10 mg/mL; in [8] (S. epidermidis ATCC 35984 established biofilm, 24 h) it was 20 mg/mL; in the series with P. aeruginosa ATCC 9027 [9] (P. aeruginosa ATCC 9027 established biofilm, 24 h) it was 10 mg/mL; with C. albicans ATCC 10231 [10] (C. albicans ATCC 10231 established biofilm, 24 h), 5 mg/mL. For the same compound, the “MIC values (range over strains)” value in series [11] (bacterial strains of Table 1) lay within 2500 to 10000 µg/mL.
For the compound `CC(=O)N[C@@H](CS)C(=O)O` [NAC, N-Acetyl-cysteine, reference compound], the MIC in the series on C. albicans ATCC 10231 [1] came out at 20000 µg/mL (≈ 123 mM); in the series with E. coli ATCC 8739 [2], 5000 µg/mL (≈ 30.6 mM); with S. aureus ATCC 29213 [3] it was 5000 µg/mL (≈ 30.6 mM); in series [4], 5000 µg/mL (≈ 30.6 mM); in the series with P. aeruginosa ATCC 9027 [5], 5000 µg/mL (≈ 30.6 mM). In the series with C. albicans ATCC 10231 [1], the MFC amounted to 80000 µg/mL (≈ 490 mM). Further, the minimum bactericidal concentration (MBC) with E. coli ATCC 8739 [2] stood at 5000 µg/mL (≈ 30.6 mM); in the series with S. aureus ATCC 29213 [3] it was 20000 µg/mL (≈ 123 mM); in [4] it was 5000 µg/mL (≈ 30.6 mM); with P. aeruginosa ATCC 9027 [5] it was 5000 µg/mL (≈ 30.6 mM). Besides, the “MIC and MBC values (range over strains)” value in series [11] (Gram positive and Gram negative tested bacteria) lay within 5000 to 20000 µg/mL.
Regarding `Cc1ccc(C(C)C)cc1OC(=O)[C@@H]1CSCN1` [codrug 8, TFA·TCA-CAR], the minimal inhibitory concentration (MIC) with C. albicans ATCC 10231 [1] was determined as 600 µg/mL; in the series on E. coli ATCC 8739 [2] it was 5000 µg/mL; in the series on S. aureus ATCC 29213 [3], 5000 µg/mL; in series [4], 2500 µg/mL; in the series with P. aeruginosa ATCC 9027 [5], 10000 µg/mL. The MFC in the series with C. albicans ATCC 10231 [1] came out at 600 µg/mL. The MBC turned out to be 5000 µg/mL with E. coli ATCC 8739 [2], 10000 µg/mL in the series with S. aureus ATCC 29213 [3], 5000 µg/mL in [4] and 10000 µg/mL in the series on P. aeruginosa ATCC 9027 [5]. In addition, in series [12], the “concentration at which hemolytic activity is over 50%” value is 3000 µg/mL. Besides, the hemolysis at 1 h in “Hemolytic activity” is over 50%.
Turning to `C#CCSC[C@H](NC(C)=O)C(=O)Oc1cc(C(C)C)ccc1C` [codrug 9, N-Ac-Cys(Propargyl)-CAR], the minimum inhibitory concentration (MIC) stood at 1250 µg/mL (≈ 3.75 mM) in the series with C. albicans ATCC 10231 [1]; 10000 µg/mL (≈ 30 mM) in the series with E. coli ATCC 8739 [2]; 10000 µg/mL (≈ 30 mM) in the series on S. aureus ATCC 29213 [3]; 5000 µg/mL (≈ 15 mM) in [4]; 10000 µg/mL (≈ 30 mM) in the series with P. aeruginosa ATCC 9027 [5]. Further, in the series on C. albicans ATCC 10231 [1], the MFC came out at 2500 µg/mL (≈ 7.5 mM). Moreover, the MBC (in the series on E. coli ATCC 8739 [2]; in the series on S. aureus ATCC 29213 [3]; in series [4]; with P. aeruginosa ATCC 9027 [5]) was 10000 µg/mL (≈ 30 mM) each time. For the same compound, the “concentration at which hemolytic activity is over 50%” value in series [12] amounted to 10000 µg/mL. The hemolysis at 1 h in the series “Hemolytic activity” was over 50%.

These data come from paper PMC4393269, “Carvacrol Codrugs: A New Approach in the Antimicrobial Plan” (PLoS ONE, 2015).
